Laboratory results taken from US7780997B2, “Pharmaceutically active extracts of vitex leucoxylon, a process of extracting the same and a method of treating diabetes and inflammatory diseases therewith” (Laila Impex, priority 2005, dated 2010).

Assays:
Albino wistar rats [1] = experiment: Hypoglycemic activity: inhibition of sucrose-induced raise in serum glucose levels (SGL); format: in vivo, rat; settings: for Increased SGL (mean ± SE): 20 mL/kg of 20% sucrose after 30 min, blood one hour after treatment, rats; for % of inhibition (increase in serum glucose levels vs control): sucrose-loaded rats
Protocol: Hypoglycemic activity: Hypoglycemic activity was tested by the inhibition of sucrose-induced raise in serum glucose levels (SGL), by the V. leucoxylon extracts in Albino wistar rats. The procedure involves fasting the rats for overnight at ad libitum water, numbered weighed and randomly divided into groups of three animals each. Prior to treatment blood samples were drawn from sinus orbital plexus of all animals using heparin coated glass capillaries under mild ether anesthesia. The blood samples were tested for serum glucose levels using enzymatic GOD/POD method. Optical densities were measured at 500 nm, SGL was calculated as follows. SGL=(test OD/Standard OD)×100 and the results were expressed in mg/dL. All the groups were treated orally with corresponding test substances, standard, vehicle (5% gum acacia). After 30 minutes, all animals were given 20 mL/kg of 20% sucrose solution orally using gastric tube. One hour after treatment, blood samples were drawn again under mild ether anesthesia and tested for serum glucose levels in a similar procedure as described above for initial serum glucose estimation. The data was subjected to statistical treatment using t-test and inhibitory rate was calculated by comparing mean increase in serum glucose levels of control and red groups.

Albino wistar rats [2] = experiment: Anti-inflammatory activity (Carrageenin induced paw edema method); format: in vivo; settings: Rattus norvegicus, oral dose 25 mg/Kg, 3 h after carrageenin
Protocol: Anti-inflammatory activity (Carrageenin induced paw edema method): Prior to the experiment all the animals (Albino wistar rats of either sex weighing between 180-300 g) fasted at ad libitum water and were weighed, numbered and randomly divided into groups, each containing 3 animals. Initial paw volumes were measured using plethesmometer and noted. All the groups were treated with corresponding test substance orally using gastric tube. Control group was treated with 10 mL/Kg vehicle (0.5%, carboxymethyl cellulose sodium salt). After 30 minutes, all the animals were injected subcutaneously at subplantar region of left hind paw 1% carrageenin 0.1 mL using hypodermic needle. All the animals were administered water 20 mL/Kg body weight and kept devoid of water for 3 h (maintained uniform hydration). After 3 h, paw volumes of all the animals were measured twice and average volume from two measurements were recorded. The % of inhibition of paw edema was calculated by comparing paw edema of test substance treated groups with that of control groups.

**Q.** Which “Increased SGL (mean ± SE)” value (Albino wistar rats [1]; oral dose 1 mg/Kg) does the source give for C[C@H]1[C@H](C)CC[C@]2(C(=O)O)CC[C@]3(C)C(=CC[C@@H]4[C@@]5(C)C[C@@H](O)[C@H](O)C(C)(C)[C@@H]5CC[C@]43C)[C@H]12 [Corosolic acid] here?
**A.** The value was 27.72 ± 3.27 mg/dL.

**Q.** What about the “% of inhibition (increase in serum glucose levels vs control)” value (Albino wistar rats [1]; oral dose 1 mg/Kg) of the same molecule?
**A.** The value was 9.78%.

**Q.** How did the inhibition at 25 mg/kg (Albino wistar rats [2]) turn out when O=C(O)Cc1ccccc1Nc1c(Cl)cccc1Cl [Diclofenac sodium] was run?
**A.** The inhibition at 25 mg/kg was 63.1%.

**Q.** COc1ccc(Cl)cc1C(=O)NCCc1ccc(S(=O)(=O)NC(=O)NC2CCCCC2)cc1 [Glibenclamide] was tested. Which “Increased SGL (mean ± SE)” value (Albino wistar rats [1]; oral dose 25 mg/Kg) did it give?
**A.** The value was 6.12 ± 4.32 mg/dL.

**Q.** And the “% of inhibition (increase in serum glucose levels vs control)” value (Albino wistar rats [1]; oral dose 25 mg/Kg)?
**A.** Its value is 80.0%.
